Assay results taken from US20250235434A1, “RIFABUTIN ANALOGS FOR THE TREATMENT OF DISEASE” (BIOVERSYS AG, priority 2022, published 2025).
≈ marks a conversion by molar mass, not a printed value. Where two headings read alike, the source gives them in different places.

What was measured:
Type in all cases: cell-based
[1] = system: S. aureus (UAMS-1625 strain); assay: MIC by broth microdilution against S. aureus; conditions: Staphylococcus aureus, 20 h, read-out: MIC S. aureus
[2] = system: A. baumannii (HUMC1 strain); assay: MIC by broth microdilution against A. baumannii; conditions: Acinetobacter baumannii, RPMI medium supplemented with 10% FCS, 35° C. for 20 hours, visual reading
[3] = system: M. abscessus (ATCC 19977); assay: MIC by broth microdilution against M. abscessus; conditions: Mycobacteroides abscessus, ATCC19977, 20 h, read-out: MIC M. abscessus
[4] = system: M. smegmatis (ATCC 700084); assay: MIC against M. smegmatis (resazurin assay); conditions: Mycolicibacterium smegmatis, ATCC700084, Middlebrook 7H9 + ADC, 90% growth inhibition, 20 h
M. xenopi (ATCC 19250) = assay: MIC against M. xenopi (resazurin assay); conditions: Mycobacterium xenopi, ATCC19250, 168 h, Middlebrook 7H9 + ADC, 90% growth inhibition, 7 days
M. avium (ATCC 25291) = assay: MIC against M. avium (resazurin assay); conditions: Mycobacterium avium, ATCC25291, 168 h, Middlebrook 7H9 + ADC, 90% growth inhibition, 7 days
M. kansasii (ATCC 12478) = assay: MIC against M. kansasii (resazurin assay); conditions: Mycobacterium kansasii, ATCC12478, 168 h, Middlebrook 7H9 + ADC, 90% growth inhibition, 7 days
[5] = system: M. tuberculosis H37Rv (ATCC 27294); assay: microbe, parasite or virus in culture; conditions: Mycobacterium tuberculosis, 120 h
[6] = ATCC 19977, Middlebrook 7H9 broth with ADC supplement, visual reading

Structure (SMILES) | MIC [1] [µg/mL] | MIC [2] [µg/mL] | MIC [3, 6] [µg/mL] | MIC [4] [µg/mL] | MIC (M. xenopi (ATCC 19250)) [µg/mL] | MIC (M. avium (ATCC 25291)) [µg/mL] | MIC (M. kansasii (ATCC 12478)) [µg/mL] | MIC [5] [µg/mL] | MIC [3] [µg/mL]
CO[C@H]1/C=C/O[C@@]2(C)Oc3c(C)c(O)c4c(c3C2=O)C2=NC3(CCN(CC(C)C)CC3)NC2=C(NC(=O)/C(C)=C\C=C\[C@H](C)[C@H](O)[C@@H](C)[C@@H](O)[C@@H](C)[C@H](OC(=O)CN2CCC(O)(Cc3ccccc3)CC2)[C@@H]1C)C4=O [Compound 24] | 0.125 (≈ 0.121 µM) | 0.016 (≈ 0.0154 µM) | 1 (≈ 0.965 µM) | 0.1 | 0.01 | 2 | 0.01 | 0.004 (≈ 0.00386 µM) | –
CO[C@H]1/C=C/O[C@@]2(C)Oc3c(C)c(O)c4c(c3C2=O)C2=NC3(CCN(CC(C)C)CC3)NC2=C(NC(=O)/C(C)=C\C=C\[C@H](C)[C@H](O)[C@@H](C)[C@@H](O)[C@@H](C)[C@H](OC(=O)CN2CCN(CC3CCCCC3)CC2)[C@@H]1C)C4=O [Compound 40] | 0.25 (≈ 0.243 µM) | 0.125 (≈ 0.122 µM) | 0.125 (≈ 0.122 µM) | 0.02 | 0.05 | 0.19 | 0.008 | 0.004 (≈ 0.00389 µM) | –
CO[C@H]1/C=C/O[C@@]2(C)Oc3c(C)c(O)c4c(c3C2=O)C2=NC3(CCN(CC(C)C)CC3)NC2=C(NC(=O)/C(C)=C\C=C\[C@H](C)[C@H](O)[C@@H](C)[C@@H](O)[C@@H](C)[C@H](OC(=O)CN2CCC(N3CCCCC3)CC2)[C@@H]1C)C4=O [Compound 26] | 0.06 (≈ 0.0592 µM) | ≤ 0.002 | 0.5 (≈ 0.493 µM) | 0.04 | 0.06 | 1.15 | 0.02 | 0.007 (≈ 0.00691 µM) | –
CO[C@H]1/C=C/O[C@@]2(C)Oc3c(C)c(O)c4c(c3C2=O)C2=NC3(CCN(CC(C)C)CC3)NC2=C(NC(=O)/C(C)=C\C=C\[C@H](C)[C@H](O)[C@@H](C)[C@@H](O)[C@@H](C)[C@H](OC(=O)CN2CCC(NS(=O)(=O)c3ccccc3)CC2)[C@@H]1C)C4=O [Compound 29] | 0.5 (≈ 0.461 µM) | 0.03 (≈ 0.0276 µM) | 0.25 (≈ 0.23 µM) | 0.09 | 0.01 | 0.6 | 0.01 | 0.003 (≈ 0.00276 µM) | –
CO[C@H]1/C=C/O[C@@]2(C)Oc3c(C)c(O)c4c(c3C2=O)C2=NC3(CCN(CC(C)C)CC3)NC2=C(NC(=O)/C(C)=C\C=C\[C@H](C)[C@H](O)[C@@H](C)[C@@H](O)[C@@H](C)[C@H](OC(=O)CNC2CCN(C)CC2)[C@@H]1C)C4=O [Compound 2] | 0.06 (≈ 0.0626 µM) | ≤ 0.002 | 2 (≈ 2.09 µM) | 0.03 | 0.08 | 1.2 | 0.02 | 0.02 (≈ 0.0209 µM) | –
CO[C@H]1/C=C/O[C@@]2(C)Oc3c(C)c(O)c4c(c3C2=O)C2=NC3(CCN(CC(C)C)CC3)NC2=C(NC(=O)/C(C)=C\C=C\[C@H](C)[C@H](O)[C@@H](C)[C@@H](O)[C@@H](C)[C@H](OC(=O)CN2CCN(C)CC2)[C@@H]1C)C4=O [Compound 6] | 0.03 (≈ 0.0317 µM) | ≤ 0.002 | 1 (≈ 1.06 µM) | 0.03 | 0.04 | 1.3 | 0.01 | 0.008 (≈ 0.00846 µM) | –
CO[C@H]1/C=C/O[C@@]2(C)Oc3c(C)c(O)c4c(c3C2=O)C2=NC3(CCN(CC(C)C)CC3)NC2=C(NC(=O)/C(C)=C\C=C\[C@H](C)[C@H](O)[C@@H](C)[C@@H](O)[C@@H](C)[C@H](OC(=O)CN2CCC3C(CCCN3Cc3ccccc3)C2)[C@@H]1C)C4=O (some centres unmarked) [Compound 28] | 0.125 (≈ 0.116 µM) | 0.016 (≈ 0.0149 µM) | – | 0.1 | 0.03 | 3.9 | 0.01 | 0.003 (≈ 0.00279 µM) | 0.125 (≈ 0.116 µM)
